Reference: paper PMC5799307, “Creation of a long-acting nanoformulated dolutegravir” (Nature Communications, 2018)

Assays:
[1] = tested on: MDM; assay: LDH cytotoxicity assay in MDM; assay type: cell-based, human; settings: 24 h, 400 µM
[2] = tested on: HIV-1; set-up: method as in PMID 21115794; settings: cited from earlier work
[3] = Aqueous solubility (excess drug in water, room temperature, overnight, UPLC); assay type: physicochemical
Method: A lipophilic and hydrophobic modified DTG prodrug (called MDTG) was synthesized through myristoylation of the parent drug hydroxyl group. Initially, DTG was dried by co-evaporation from anhydrous pyridine then resuspended in anhydrous DMF and cooled to 0 °C under argon. 2-equivalents DIEA were used to deprotonate the 7-hydroxyl group of DTG, which was then immediately reacted with 2 equivalents myristoyl chloride for 24 h. The resultant product was purified by silica gel column chromatography using an initial mobile phase of 4:1 ethyl acetate: hexanes for 12 fractions, then 9:1 ethyl acetate: hexanes for the remainder. […] ESI-MS specifics (m/z): calculated for C34H45F2N3O6, 629.33 (100%), 630.33 (36.8%), 631.33 (3.9%); found, 630.30. […] The aqueous solubility of DTG and MDTG was evaluated by adding excess drug to water at room temperature then mixing it overnight. […] Solubilized drug in the supernatant was extracted in methanol and measured using a Waters ACQUITY ultra performance liquid chromatography (UPLC) H-Class System with TUV detector and Empower 3 software (Milford, MA). For DTG and MDTG quantitation, drug extracts were separated on a Phenomenex Kinetex 5 μm C18 column (150 × 4.6 mm) (Torrance, CA) using either 65% 50 mM KH2PO4, pH 3.2/35% ACN (DTG) or 90% ACN/10% water (MDTG) with a flow rate of 1.0 mL/min and detected at 254 nm and 230 nm, respectively. […]

SMILES	cytotoxicity by LDH [1]	protein-adjusted inhibitory concentration90 (PA-IC90) [2] [µg/mL]	decrease in aqueous solubility compared to DTG [3] [fold]
C[C@@H]1CCO[C@H]2Cn3cc(C(=O)NCc4ccc(F)cc4F)c(=O)c(O)c3C(=O)N12 [DTG, dolutegravir]	changes in cell vitality	0.064	–
CCCCCCCCCCCCCC(=O)Oc1c2n(cc(C(=O)NCc3ccc(F)cc3F)c1=O)C[C@@H]1OCC[C@@H](C)N1C2=O [MDTG]	–	–	8.7
